Test systems include OVCAR-8; SN12C; OVCAR-3; MDA-MB-435; HL-60; MDA-N; NCI-H23; SW-620; HT-29; HCT-116; CAKI-1; COLO 205; K562; MCF7; BT-549; UACC-62.
Holding throughout (test): NCI-60 cell line screen, 48 h

Structures can show the parent of a compound that is named as a salt.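 Exposure lasted 48 hours, with cells grown in 96-well plates and compounds tested at five concentrations. GI50: concentration for 50% inhibition of growth.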 The source made the active and inactive calls. No stated cut-off is given here; in the data, active = GI50 up to about 1.1 µM and inactive = higher.

As to `Oc1ccc(/N=N/c2ccc(Cl)cc2)cc1`, the GI50 is 16.6 µM (inactive) in the experiment on OVCAR-8; 17.1 µM (inactive) in the experiment on SN12C; 21.7 µM (inactive) in the experiment with OVCAR-3; 14.9 µM (inactive) in the experiment on MDA-MB-435; 4.38 µM (inactive) with HL-60; 16.9 µM (inactive) with MDA-N. Also, the GI50 in the experiment on NCI-H23 was 16.4 µM (inactive); with SW-620 it was 30.5 µM (inactive); in the experiment with HT-29 it was 18.3 µM (inactive); in the experiment with HCT-116, 15.9 µM (inactive); in the experiment on CAKI-1, 14.4 µM (inactive); in the experiment on COLO 205 it was 18.4 µM (inactive). For the same compound, the GI50 was 19.6 µM (inactive) in the experiment with K562, 17.7 µM (inactive) with MCF7, 15.1 µM (inactive) in the experiment on BT-549 and 11.9 µM (inactive) in the experiment on UACC-62.

For `COc1ccc(/N=C(/C[S+]([O-])c2ccc(C)cc2)C(F)(F)F)cc1` (configuration not stated), the GI50 with OVCAR-8 was > 100 µM (inactive); with SN12C it was > 100 µM (inactive); in the experiment with OVCAR-3, > 100 µM (inactive); in the experiment with MDA-MB-435, > 100 µM (inactive); in the experiment with HL-60, 19.1 µM (inactive); with MDA-N, > 100 µM (inactive). In addition, the GI50 in the experiment on NCI-H23, in the experiment on SW-620, in the experiment with HT-29, in the experiment on HCT-116, in the experiment with CAKI-1 and in the experiment with COLO 205 was > 100 µM (inactive) throughout. Further, the GI50 is 59.7 µM (inactive) in the experiment on K562, > 100 µM (inactive) in the experiment on MCF7, > 100 µM (inactive) in the experiment with BT-549 and 10.6 µM (inactive) with UACC-62.

Regarding `CC(=O)OCC12C(OC(C)=O)C[C@@H](C)C3(CC(c4ccoc4)OC3=O)C1CCC(OC(C)=O)C21CO1` (some centres not stated), the GI50 with OVCAR-8, with SN12C, with OVCAR-3, in the experiment with MDA-MB-435, in the experiment with HL-60 and in the experiment on MDA-N was > 100 µM (inactive) in each case. The GI50 with NCI-H23, in the experiment with SW-620, with HT-29, in the experiment with HCT-116, in the experiment on CAKI-1 and in the experiment with COLO 205 was > 100 µM (inactive) in each case. Moreover, the GI50 in the experiment with K562, with MCF7, in the experiment on BT-549 and in the experiment on UACC-62 was > 100 µM (inactive) each time.

Take `CCc1ccc2c(c1)N(CC(C)CN(C)C)c1ccccc1S2` (configuration not stated) [ETYMEMAZINE HYDROCHLORIDE]: the GI50 was 7.94 µM (inactive) with OVCAR-8; 7.21 µM (inactive) with SN12C; 4.88 µM (inactive) with OVCAR-3; 2.87 µM (inactive) with MDA-MB-435; 2.65 µM (inactive) in the experiment with HL-60; 5.5 µM (inactive) in the experiment on MDA-N. In addition, the GI50 was 7.64 µM (inactive) in the experiment with NCI-H23; 5.53 µM (inactive) in the experiment on SW-620; 3.12 µM (inactive) in the experiment on HT-29; 3.65 µM (inactive) in the experiment with HCT-116; 5.06 µM (inactive) in the experiment with CAKI-1; 3.29 µM (inactive) in the experiment with COLO 205. The GI50 is 0.37 µM (active) in the experiment on K562, 3.92 µM (inactive) in the experiment on MCF7, 12.9 µM (inactive) in the experiment on BT-549 and 5.31 µM (inactive) in the experiment with UACC-62.

Turning to `COC(=O)C1=C(C)NC2(C)OC(C)(O)C(C(C)=O)C12C(C)=O` (configuration not stated), the GI50 with OVCAR-8 is > 100 µM (inactive); with SN12C, 47.6 µM (inactive); with OVCAR-3, > 100 µM (inactive); in the experiment with MDA-MB-435, > 100 µM (inactive); with HL-60, > 100 µM (inactive); in the experiment on MDA-N, > 100 µM (inactive). Further, the GI50 in the experiment with NCI-H23 is > 100 µM (inactive); in the experiment with SW-620, > 100 µM (inactive); in the experiment on HT-29 it was 81.3 µM (inactive); in the experiment with HCT-116, > 100 µM (inactive); in the experiment with CAKI-1, > 100 µM (inactive); with COLO 205, 46.8 µM (inactive). Also, the GI50 in the experiment with K562 was > 100 µM (inactive); in the experiment on MCF7, > 100 µM (inactive); in the experiment with BT-549 it was 66.5 µM (inactive); in the experiment with UACC-62 it was > 100 µM (inactive).

In the case of `CC1(C)C=Cc2c(cc(O)c3c(=O)c4cc(Cl)ccc4[nH]c23)O1`, the GI50 with OVCAR-8 was 3.98 µM (inactive); with SN12C, 3.24 µM (inactive); in the experiment on OVCAR-3 it was 0.469 µM (active); in the experiment with MDA-MB-435, 3.35 µM (inactive); with HL-60 it was 2.84 µM (inactive); with MDA-N, 2.62 µM (inactive). The GI50 in the experiment on NCI-H23 was 2.3 µM (inactive); with SW-620 it was 3.55 µM (inactive); in the experiment with HT-29, 2.4 µM (inactive); in the experiment on HCT-116, 2.99 µM (inactive); in the experiment with CAKI-1, 3.94 µM (inactive); with COLO 205, 4.43 µM (inactive). The GI50 with K562 is 1.81 µM (inactive); in the experiment with MCF7 it was 2.88 µM (inactive); with BT-549 it was 2.63 µM (inactive); in the experiment with UACC-62 it was 2.58 µM (inactive).

On to `CC(=O)OCC(OC(C)=O)C(OC(C)=O)C(OC(C)=O)C(/C=N\Nc1nc2ccccc2c(=O)[nH]1)=N/Nc1nc2ccccc2c(=O)[nH]1` (configuration not stated), for which the GI50 with OVCAR-8, in the experiment with SN12C, in the experiment with OVCAR-3, in the experiment with MDA-MB-435, in the experiment on HL-60 and in the experiment with MDA-N was > 100 µM (inactive) in each case. Further, the GI50 with NCI-H23, in the experiment with SW-620, with HT-29, in the experiment on HCT-116, in the experiment with CAKI-1 and in the experiment on COLO 205 was > 100 µM (inactive) throughout. Moreover, the GI50 in the experiment on K562, in the experiment with MCF7, with BT-549 and in the experiment with UACC-62 was > 100 µM (inactive) each time.

Regarding `CC1C(c2ccccc2)OP(=O)(OC(C#N)c2ccccc2)N1C` (configuration not stated), the GI50 was > 100 µM (inactive) in the experiment with OVCAR-8; > 100 µM (inactive) in the experiment with SN12C; > 100 µM (inactive) in the experiment on OVCAR-3; 81.1 µM (inactive) in the experiment on MDA-MB-435; 27.6 µM (inactive) with HL-60; > 100 µM (inactive) in the experiment on MDA-N. Moreover, the GI50 in the experiment with NCI-H23 is > 100 µM (inactive); in the experiment on SW-620 it was 97.9 µM (inactive); in the experiment with HT-29, > 100 µM (inactive); in the experiment on HCT-116, > 100 µM (inactive); with CAKI-1, > 100 µM (inactive); in the experiment on COLO 205 it was > 100 µM (inactive). The GI50 is 39.3 µM (inactive) in the experiment with K562, 37.6 µM (inactive) with MCF7, > 100 µM (inactive) in the experiment on BT-549 and > 100 µM (inactive) with UACC-62.

For the compound `CN1[C@@H]2CCCC[C@H]2N(C)P1(=O)C(O)/C=C/c1ccccc1` (some centres not stated), the GI50 in the experiment on OVCAR-8, in the experiment on SN12C, with OVCAR-3, in the experiment on MDA-MB-435, with HL-60 and in the experiment on MDA-N was > 100 µM (inactive) throughout. Also, the GI50 in the experiment with NCI-H23, in the experiment on SW-620, in the experiment on HT-29, in the experiment with HCT-116, in the experiment with CAKI-1 and in the experiment on COLO 205 was > 100 µM (inactive) each time. Further, the GI50 in the experiment on K562, in the experiment on MCF7, in the experiment with BT-549 and in the experiment on UACC-62 was > 100 µM (inactive) in each case.

Consider `CC(=O)OC1COC(n2nc(/C=C/c3ccc(Cl)cc3)c(=O)n(/N=C/c3ccccc3)c2=S)C(OC(C)=O)C1OC(C)=O` (configuration not stated), for which the GI50 with OVCAR-8, in the experiment with SN12C, in the experiment on OVCAR-3, with MDA-MB-435, in the experiment on HL-60 and in the experiment with MDA-N was > 100 µM (inactive) each time. The GI50 in the experiment with NCI-H23, in the experiment with SW-620, in the experiment with HT-29, in the experiment on HCT-116, with CAKI-1 and in the experiment with COLO 205 was > 100 µM (inactive) in each case. Further, the GI50 in the experiment with K562, in the experiment with MCF7, with BT-549 and in the experiment with UACC-62 was > 100 µM (inactive) throughout.

In the case of `COc1cccc2c(Nc3ccc(S(=O)(=O)NC(C)=O)cc3)c3ccc([N+](=O)[O-])cc3nc12`, the GI50 with OVCAR-8 was 27.7 µM (inactive); in the experiment with SN12C, 57.1 µM (inactive); in the experiment on OVCAR-3 it was 32.5 µM (inactive); in the experiment on MDA-MB-435 it was 31.6 µM (inactive); with HL-60, 36 µM (inactive); with MDA-N it was 36.6 µM (inactive). In addition, the GI50 with NCI-H23 was 35.2 µM (inactive); in the experiment with SW-620, 45.7 µM (inactive); with HT-29, 13.8 µM (inactive); in the experiment with HCT-116, 30.5 µM (inactive); in the experiment on CAKI-1, 65.6 µM (inactive); with COLO 205, 28.5 µM (inactive). In addition, the GI50 in the experiment with K562 was 22 µM (inactive); with MCF7, 13.1 µM (inactive); in the experiment with BT-549 it was 26.3 µM (inactive); with UACC-62, 31.4 µM (inactive).

Regarding `CCOP1(=O)C=C(Sc2ccc([N+](=O)[O-])cc2[N+](=O)[O-])C(C)(C)O1` (configuration not stated), the GI50 was 16.7 µM (inactive) in the experiment with OVCAR-8; 10.3 µM (inactive) with SN12C; 11.6 µM (inactive) with OVCAR-3; 11.4 µM (inactive) in the experiment on MDA-MB-435; 3.41 µM (inactive) in the experiment on HL-60; 5.07 µM (inactive) in the experiment with MDA-N. For the same compound, the GI50 with NCI-H23 is 18.3 µM (inactive); in the experiment on SW-620, 11.6 µM (inactive); with HT-29 it was 8.39 µM (inactive); with HCT-116, 5.42 µM (inactive); with CAKI-1, 11.7 µM (inactive); in the experiment on COLO 205 it was 10.5 µM (inactive). Further, the GI50 is 2.52 µM (inactive) in the experiment with K562, 3.99 µM (inactive) in the experiment on MCF7, 17.5 µM (inactive) with BT-549 and 11.5 µM (inactive) in the experiment with UACC-62.

The values are drawn from ChEMBL document CHEMBL1201862, “PubChem BioAssay data set” (2004).
